Tests used:
[1] = target: T1, rFIXa (human) (Homo sapiens, UniProt P00740); assay: Influence of known protease inhibitors on the activity of rFIXa; format: biochemical; set-up: coding for the FIX protease domain from amino acid position 181 to 415; Met (ATG start codon) (N); made in house
Method: Specific FIXa inhibitors can be identified by the inhibition of FIXa activity. For this purpose the FIXa activity is determined with a substrate of the R-D-Xxx-Gly-Arg-pNA type (Xxx=hydrophobic amino acid) in the absence and presence of the substance to be tested or of a substance mixture and the percentage inhibition is calculated from the quotients. The inhibition constant Ki is determined from the inhibition kinetics. The measurement signal is amplified by the presence of high concentrations of certain alcohols (preferably ethylene glycol).
200 μl buffer (100 mmol/l Tris-HCl, 100 mmol/l NaCl, 5 mmol/l CaCl2, 20-40% alcohol, pH 7-9) the buffer contains the inhibitor at various concentrations […]
The reaction can also be terminated after 5-10 min by stopping with acetic acid (25 μl, 50%), the absorbance is determined at 405 nm against a reagent blank.
Influence of Known Protease Inhibitors on the Activity of rFIXa Using Different pHs, Alcohols and Alcohol Concentrations 42 mmol/l Tris-HCl, pH 7.4 or 8.5 substrate MeSO2 -D-CHG-Gly-Arg-pNA (1.02 mmol/l) […]
inhibitor at stepped concentrations (4.1-163 μmol/l)
Known synthetic inhibitors of the 3-amidinophenylalanine type were used as inhibitors (Sturzebecher et al, J. Enzyme. Inhibition 9 (1995) 87 and WO 92/08709) (1991)). The inhibitory effect was examined at a low and at a high alcohol concentration as an example.

[2] = target: T1, rFIXa (human); assay: Determination of the dissociation constant Ki according to DIXON, rFIXa; format: biochemical; set-up: coding for the FIX protease domain from amino acid position 181 to 415; Met (ATG start codon) (N); made in house; conditions: pH 8.5, 33% ethylene glycol
Method: Determination of the Dissociation Constant Ki According to the Method of DIXON
42 mmol/l Tris-HCl, pH 8.5
inhibitor in stepped concentrations (0, 20.4 and 40.8 μmol/l) […]
0.14 μmol/l rFIXa (human) […]
TIPPS-(3-Am)Phe-iNip-OH was used as the inhibitor and the inhibitory effect was determined as an example for two substrates under optimal conditions (pH 8.5, 33% ethylene glycol).

T1 sequence (P00740 227-461 limits assumed): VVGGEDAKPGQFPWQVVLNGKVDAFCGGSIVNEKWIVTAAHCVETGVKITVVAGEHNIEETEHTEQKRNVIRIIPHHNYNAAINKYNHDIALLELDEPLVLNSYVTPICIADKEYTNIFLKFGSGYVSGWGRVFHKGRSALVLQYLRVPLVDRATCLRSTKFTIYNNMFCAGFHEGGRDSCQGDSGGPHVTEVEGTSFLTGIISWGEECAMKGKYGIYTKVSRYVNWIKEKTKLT
T1 sequence (P00740 131-226 limits assumed): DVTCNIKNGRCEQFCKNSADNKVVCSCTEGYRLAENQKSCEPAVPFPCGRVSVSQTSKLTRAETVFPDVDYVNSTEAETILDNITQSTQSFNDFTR

CC(C)c1cc(C(C)C)c(S(=O)(=O)NC(Cc2cccc(C(=N)N)c2)C(=O)N2CCC(C(=O)O)CC2)c(C(C)C)c1 (centres unmarked) [TIPPS-(3-Am)Phe-iNip-OH, Nα-(2,4,6-triisopropylbenzenesulfonyl)-3-amidino-(D,L)-phenylalanine-isonipecotic acid]
Inhibition of the activity of factor IXa (in %) ([1]; inhibitor 4.1 μmol/l, pH 7.4, 4.1% ethanol, 0.57 μmol/l rFIXa): 89.5%
Inhibition of the activity of factor IXa (in %) ([1]; inhibitor 4.1 μmol/l, pH 7.4, 33% ethylene glycol, 0.057 μmol/l rFIXa): 86.9%
Inhibition of the activity of factor IXa (in %) ([1]; inhibitor 4.1 μmol/l, pH 8.5, 4.1% ethanol, […] rFIXa): 90.6%
Inhibition of the activity of factor IXa (in %) ([1]; inhibitor 4.1 μmol/l, pH 8.5, 33% ethylene glycol, […] rFIXa): 85.6%
Inhibition of the activity of factor IXa (in %) ([1]; inhibitor 8.2 μmol/l, pH 7.4, 4.1% ethanol, 0.57 μmol/l rFIXa): 87.6%
Inhibition of the activity of factor IXa (in %) ([1]; inhibitor 8.2 μmol/l, pH 7.4, 33% ethylene glycol, 0.057 μmol/l rFIXa): 79.4%
Inhibition of the activity of factor IXa (in %) ([1]; inhibitor 8.2 μmol/l, pH 8.5, 4.1% ethanol, […] rFIXa): 85.2%
Inhibition of the activity of factor IXa (in %) ([1]; inhibitor 8.2 μmol/l, pH 8.5, 33% ethylene glycol, […] rFIXa): 72.8%
Inhibition of the activity of factor IXa (in %) ([1]; inhibitor 16.3 μmol/l, pH 7.4, 4.1% ethanol, 0.57 μmol/l rFIXa): 76.2%
Inhibition of the activity of factor IXa (in %) ([1]; inhibitor 16.3 μmol/l, pH 7.4, 33% ethylene glycol, 0.057 μmol/l rFIXa): 61.7%
Inhibition of the activity of factor IXa (in %) ([1]; inhibitor 16.3 μmol/l, pH 8.5, 4.1% ethanol, […] rFIXa): 74.8%
Inhibition of the activity of factor IXa (in %) ([1]; inhibitor 16.3 μmol/l, pH 8.5, 33% ethylene glycol, […] rFIXa): 58.0%
Inhibition of the activity of factor IXa (in %) ([1]; inhibitor 40.8 μmol/l, pH 7.4, 4.1% ethanol, 0.57 μmol/l rFIXa): 55.8%
Inhibition of the activity of factor IXa (in %) ([1]; inhibitor 40.8 μmol/l, pH 7.4, 33% ethylene glycol, 0.057 μmol/l rFIXa): 38.9%
Inhibition of the activity of factor IXa (in %) ([1]; inhibitor 40.8 μmol/l, pH 8.5, 4.1% ethanol, […] rFIXa): 55.2%
Inhibition of the activity of factor IXa (in %) ([1]; inhibitor 40.8 μmol/l, pH 8.5, 33% ethylene glycol, […] rFIXa): 33.6%
Inhibition of the activity of factor IXa (in %) ([1]; inhibitor 81.6 μmol/l, pH 7.4, 4.1% ethanol, 0.57 μmol/l rFIXa): 36.3%
Inhibition of the activity of factor IXa (in %) ([1]; inhibitor 81.6 μmol/l, pH 7.4, 33% ethylene glycol, 0.057 μmol/l rFIXa): 21.2%
Inhibition of the activity of factor IXa (in %) ([1]; inhibitor 81.6 μmol/l, pH 8.5, 4.1% ethanol, […] rFIXa): 35.3%
Inhibition of the activity of factor IXa (in %) ([1]; inhibitor 81.6 μmol/l, pH 8.5, 33% ethylene glycol, […] rFIXa): 20.7%
Inhibition of the activity of factor IXa (in %) ([1]; inhibitor 163 μmol/l, pH 7.4, 4.1% ethanol, 0.57 μmol/l rFIXa): 23.8%
Inhibition of the activity of factor IXa (in %) ([1]; inhibitor 163 μmol/l, pH 7.4, 33% ethylene glycol, 0.057 μmol/l rFIXa): 15.0%
Inhibition of the activity of factor IXa (in %) ([1]; inhibitor 163 μmol/l, pH 8.5, 4.1% ethanol, […] rFIXa): 20.8%
Inhibition of the activity of factor IXa (in %) ([1]; inhibitor 163 μmol/l, pH 8.5, 33% ethylene glycol, […] rFIXa): 15.8%
1/V ([2]; inhibitor 20.4 μmol/l, MeSO2-D-CHG-Gly-Arg-pNA 0.25 μmol/l, 0.057 μmol/l rFIXa): 78.1 min/mA
1/V ([2]; inhibitor 20.4 μmol/l, MeSO2-D-CHG-Gly-Arg-pNA 0.51 μmol/l, 0.057 μmol/l rFIXa): 55.6 min/mA
1/V ([2]; inhibitor 20.4 μmol/l, MeSO2-D-CHG-Gly-Arg-pNA 1.02 μmol/l, 0.057 μmol/l rFIXa): 23.8 min/mA
1/V ([2]; inhibitor 20.4 μmol/l, MeSO2-D-HHT-Gly-Arg-pNA 0.25 μmol/l, 0.14 μmol/l rFIXa): 69.4 min/mA
1/V ([2]; inhibitor 20.4 μmol/l, MeSO2-D-HHT-Gly-Arg-pNA 0.51 μmol/l, 0.14 μmol/l rFIXa): 43.5 min/mA
1/V ([2]; inhibitor 20.4 μmol/l, MeSO2-D-HHT-Gly-Arg-pNA 1.02 μmol/l, 0.14 μmol/l rFIXa): 16.6 min/mA
1/V ([2]; inhibitor 40.8 μmol/l, MeSO2-D-CHG-Gly-Arg-pNA 0.25 μmol/l, 0.057 μmol/l rFIXa): 153 min/mA
1/V ([2]; inhibitor 40.8 μmol/l, MeSO2-D-CHG-Gly-Arg-pNA 0.51 μmol/l, 0.057 μmol/l rFIXa): 109 min/mA
1/V ([2]; inhibitor 40.8 μmol/l, MeSO2-D-CHG-Gly-Arg-pNA 1.02 μmol/l, 0.057 μmol/l rFIXa): 44.6 min/mA
1/V ([2]; inhibitor 40.8 μmol/l, MeSO2-D-HHT-Gly-Arg-pNA 0.25 μmol/l, 0.14 μmol/l rFIXa): 137 min/mA
1/V ([2]; inhibitor 40.8 μmol/l, MeSO2-D-HHT-Gly-Arg-pNA 0.51 μmol/l, 0.14 μmol/l rFIXa): 90.9 min/mA
1/V ([2]; inhibitor 40.8 μmol/l, MeSO2-D-HHT-Gly-Arg-pNA 1.02 μmol/l, 0.14 μmol/l rFIXa): 31.2 min/mA
Ki ([2]; rFIXa, substrate MeSO2-D-CHG-Gly-Arg-pNA): 16 µM
Ki ([2]; recombinant FIXa, substrate MeSO2-D-HHT-Gly-Arg-pNA): 12 µM
